Reference: US20230151326A1, “Simplified Compositions and Methods for Generating Neural Stem Cells from Human Pluripotent Stem Cells” (Wisconsin Alumni Research Foundation, priority 2012, published 2023)

Tested on: H9 hESCs
Experiment: Flow cytometry of neural markers in H9 hESCs differentiated in neural differentiation media
Assay type: cell-based, human
Details: day 9, E6 medium containing 1 μM RA
Description: hPSCs were washed once with phosphate-buffered saline (PBS; Invitrogen), incubated with Accutase® (Invitrogen) for 3 min, and collected by centrifugation. hPSCs were then plated onto Matrigel® or VTN-NC at a density of 2×10^5 cells/cm^2 in E8 medium containing 10 μM ROCK inhibitor and cultured overnight. The following morning, cells were changed to E6 medium, E6 containing 10 μM SB431542 (Cellagentech), or E6 containing 10 μM SB431542 and 200 ng/mL recombinant human noggin (R&D Systems) to initiate differentiation. E6 medium is the same formulation as E8 medium but without FGF2 and TGFβ1. Medium was changed every day until cells were utilized for analysis. […]
Cells were harvested from 6- or 12-well plates by washing once with PBS and incubating with Accutase® for 3-5 min. […] After washing twice with PBS containing 0.75% BSA, cells were analyzed on a FACSCanto™ (BD Biosciences) and resultant data were analyzed using Cyflogic software. Positive events were determined by gating the top 1% of the IgG control histograms, and all flow data presented are from biological replicates.
H9 hESCs were seeded at 2×10^5 cells/cm^2 on Matrigel® in E8 medium plus ROCK inhibitor as described above. […] Also, the morphological characteristics of the cells at day 6 were assessed by bright field microscopy. […]

CC1=C(/C=C/C(C)=C/C=C/C(C)=C/C(=O)O)C(C)(C)CCC1 [retinoic acid]
SOX1 expression by flow cytometry: up to 62±16%
